Assay results reported in patent US20220331341A1, “TREATMENT COMPRISING THE USE OF FXR AGONISTS” (Novartis AG, priority 2019, published 2022).

Experiments:
[1] = system: HF/NASH mice (hepatic oxidative stress and mitochondrial function); experiment: Dietary HF/NASH mouse model, tropifexor treatment for the last 12 of 20 weeks; format: in vivo, C57BL/6J mice
Description: Molecular, structural and functional analysis was applied to assess oxidative stress and mitochondria function in NASH model.
Similar to human disease, transition from steatosis to NASH with fibrosis in NASH mice is associated with mitochondrial dysfunction characterized by structural and functional alterations. Decline in hepatic mitochondrial function is manifested in HF/NASH mice by decreased activities of tricarboxylic acid (TCA) cycle and electron transport chain (ETC) as well as diminished ATP production. This is accompanied by oxidative damage and depletion of antioxidant enzymes. […] This was manifested by a marked increase in mitochondrial function with concomitant restoration of oxidative balance associated with increased antioxidant defenses and decreased oxidative stress.

NASH patients = experiment: Study CLJN452A2202 Parts A and B, 12 weeks; format: in vivo, human
[2] = system: patients with biopsy-proven NASH and fibrosis stages 2-3; experiment: FLIGHT-FXR (NCT02855164) Part C interim analysis at week 12; format: in vivo, human; conditions: for ALT, LS mean absolute change from baseline to Week 12 (SE) / Body weight, LS mean absolute change from baseline to Week 12 (SE) / GGT, LS mean absolute change from baseline to Week 12 (SE): full analysis set
Description: Prespecified endpoints assessed at week 12 included overall safety and changes in alanine aminotransferase (ALT), hepatic fat fraction (HFF), gamma glutamyl transferase (GGT), and body weight.

Question: Which “Liver SOD activity” value ([1]; 0.3 mg/kg) does the source give for `O=C(O)c1cc(F)c2nc(N3C4CC[C@H]3CC(OCc3c(-c5ccccc5OC(F)(F)F)noc3C3CC3)C4)sc2c1` (stereo partly drawn) [Tropifexor, 2-[(1R,3r,5S)-3-({5-cyclopropyl-3-[2-(trifluoromethoxy)phenyl]-1,2-oxazol-4-yl}methoxy)-8-azabicyclo[3.2.1]octan-8-yl]-4-fluoro-1,3-benzothiazole-6-carboxylic acid] here?
Answer: The value was “fully restored”.

Question: What about the “GPx activity in serum and liver” value ([1]; 0.9 mg/kg) of the same compound?
Answer: The value was “restored”.

Question: What about the “Liver SOD activity” value ([1]; 0.9 mg/kg) of the same compound?
Answer: The value was “increased above the levels observed in ND mice”.

Question: And the “Cell death (apoptosis) in liver: cleaved-caspase 3 staining and phospho-p38 protein levels” value ([1]; 20 weeks HF/NASH diet)?
Answer: The value was “attenuated cell death in a dose dependent manner”.

Question: And the ATP synthesis ([1]; HF/NASH livers)?
Answer: Its ATP synthesis is “improving”.

Question: What about the “Citrate synthase (CS) activity” value ([1]; HF/NASH livers) of the same compound?
Answer: The value was “dose-dependently restored”.

Question: What about the “Complex I and Complex II activities” value ([1]; HF/NASH livers) of the same compound?
Answer: The value was “restoring”.

Question: What about the “Content of all five respiratory chain (OXPHOS) proteins” value ([1]; HF/NASH livers, 0.1 mg/kg) of the same compound?
Answer: The value was “full restoration”.

Question: What about the “Expression of mitochondrial biogenesis genes (PGC-1a, Nrf1, Tfam)” value ([1]; HF/NASH mice) of the same compound?
Answer: The value was “did not lead to changes”.

Question: And the “Levels of oxidative stress in HF/NASH livers (MDA, 4-HNE, mtDNA)” value ([1]; liver)?
Answer: Its value is “markedly decreased”.

Question: And the “Antioxidant gene expression (GPx and GST superfamilies)” value ([1]; liver transcriptome)?
Answer: The value was “induced”.

Question: What about the “Expression of Gpx2, Gst family” value ([1]; liver transcriptome) of the same compound?
Answer: The value was “markedly increased their expression beyond the ND levels”.

Question: And the “Expression of Gpx3, Gpx8” value ([1]; liver transcriptome)?
Answer: The value was “restored expression of investigated genes to ND levels”.

Question: What about the “Serum levels of γ-glutamyltranspeptidase (GGT)” value ([1]; serum) of the same compound?
Answer: Its value is “decreased”.

Question: What about the “Biologic activity (GGT)” value (NASH patients; 10 to 90 μg daily for 12 weeks) of the same compound?
Answer: The value was “clear dose response”.

Question: What about the “Target engagement (FGF19)” value (NASH patients; 10 to 90 μg daily for 12 weeks) of the same compound?
Answer: Its value is “clear dose response”.

Question: And the “ALT and hepatic fat fraction compared to placebo” value (NASH patients; all doses (10, 30, 60 and 90 μg), 12 weeks)?
Answer: Its value is “reduced”.

Question: What about the Tolerability (NASH patients; up to 90 μg daily) of the same compound?
Answer: The Tolerability was “generally well tolerated”.

Question: What about the “Frequency of serious adverse events” value ([2]; 140 μg and 200 μg vs placebo) of the same compound?
Answer: The value was “low and comparable across groups”.

Question: What about the “Low density lipoprotein-cholesterol (LDL-C)” value ([2]; 140 μg and 200 μg, 12 weeks) of the same compound?
Answer: The value was “dose-related increase”.

Question: And the “Share of patients with pruritus whose events were of mild (Grade 1) severity” value ([2]; both Tropifexor groups (140 μg and 200 μg))?
Answer: Its value is > 60%.

Question: What about the “Treatment discontinuation rate due to pruritus” value ([2]; tropifexor 140 μg) of the same compound?
Answer: Its value is 2%.

Question: And the “ALT, LS mean absolute change from baseline to Week 12 (SE)” value ([2]; tropifexor 140 μg once daily)?
Answer: The value was −20.1 (4.57) U/L.

Question: What about the “Body weight, LS mean absolute change from baseline to Week 12 (SE)” value ([2]; tropifexor 140 μg once daily) of the same compound?
Answer: Its value is −2.46 (0.38) kg.

Question: And the “GGT, LS mean absolute change from baseline to Week 12 (SE)” value ([2]; tropifexor 140 μg once daily)?
Answer: Its value is −39.2 (3.70) U/L.

Question: What about the “Prespecified endpoints at week 12” value ([2]; tropifexor 200 μg) of the same compound?
Answer: Its value is “met”.

Question: What about the “Treatment discontinuation rate due to pruritus” value ([2]; tropifexor 200 μg) of the same compound?
Answer: Its value is 6%.

Question: And the “ALT, LS mean absolute change from baseline to Week 12 (SE)” value ([2]; tropifexor 200 μg once daily)?
Answer: Its value is −23.6 (4.48) U/L.

Question: And the “Body weight, LS mean absolute change from baseline to Week 12 (SE)” value ([2]; tropifexor 200 μg once daily)?
Answer: Its value is −3.20 (0.37) kg.

Question: And the “GGT, LS mean absolute change from baseline to Week 12 (SE)” value ([2]; tropifexor 200 μg once daily)?
Answer: Its value is −40.9 (3.62) U/L.
